Our source for the GI50 and TGI values is PubChem BioAssay (NCI).

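Values below derive from 48-hour exposures of cells grown in 96-well plates, with endpoints linearly interpolated between the two concentrations bracketing the appropriate inhibition level. GI50 is the concentration that inhibits growth by half. TGI marks complete inhibition of growth.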

Experiment in all cases: NCI-60 cell line screen, 48 h
The subject of test [1] is MALME-3M melanoma.
Test [2] deals with UO-31 renal.
Test [3] deals with MOLT-4 leukemia.
For test [4], the system named is HCC-2998 colon.
Test [5] concerns SK-MEL-5 melanoma.
Test [6] deals with A498 renal.
Test [7] concerns OVCAR-4 ovarian.
The subject of test [8] is HCT-116 colon.
Test [9] relates to RXF 393 renal.
For test [10], the system named is SR leukemia.

Regarding `CCCCc1cc(O)ccc1O`, the GI50 in test [1] is 21.6 µM; in test [2], 10.8 µM; in [3], 5.07 µM; in test [4], 70.8 µM; in test [5] it was 58.3 µM; in [6], over 100 µM. Further, the GI50 in test [7] was 13.1 µM; in test [8] it was 15.5 µM; in test [9] it was 16.7 µM; in [10], 8.26 µM. The TGI is 65.4 µM in test [1]; 28.1 µM in test [2]; over 100 µM in [3]; over 100 µM in [4]; over 100 µM in [5]; over 100 µM in test [6]. In addition, the TGI was 26.3 µM in [7], 28.9 µM in [8], over 100 µM in [9] and over 100 µM in test [10].
Regarding `CC(=O)O/C(C)=C\C(=O)O/N=C(\N)c1ccc(C)cc1`, the TGI is 71.5 µM in test [1]; over 100 µM in [2]; over 100 µM in [3]; over 100 µM in [4]; 58.5 µM in [5]; over 100 µM in [6]. Further, the TGI in [7] was 64.5 µM; in [8] it was 43.1 µM; in test [9], 99.3 µM; in test [10], over 100 µM.
Regarding `CN(C)CN1C(=O)S/C(=C2\C(=O)N(CN(C)C)c3ccccc32)C1=O`, the TGI in [2] is 91.8 µM; in test [3], 1.93 µM; in [4], over 100 µM; in [5] it was over 100 µM; in [6], over 100 µM; in [7], over 100 µM. Also, the TGI in test [8] is over 100 µM; in test [9], 75 µM; in [10], 45.3 µM.
On to `O=C(N/N=C/c1ccc(F)cc1)c1[nH]c2ccc(I)cc2c1-c1ccccc1`, for which the GI50 is 1.98 µM in test [2]; 1.24 µM in [3]; 0.888 µM in test [4]; 0.417 µM in test [5]; 0.409 µM in test [6]; 0.702 µM in test [7]. Besides, the GI50 in test [8] is 0.325 µM; in [10] it was 0.297 µM. Also, the TGI in [2] is 52.6 µM; in test [3] it was over 36.9 µM; in [4], 12.5 µM; in [5], 2.52 µM; in test [7] it was over 87.4 µM; in test [8], 1.35 µM. Further, the TGI in test [10] came to 3.37 µM.
As for `c1ccc2c(NCCCCCCCCNc3c4ccccc4nc4ccccc34)c3ccccc3nc2c1`, the TGI worked out at 2.63 µM in test [1]; 2.76 µM in test [2]; 3.61 µM in test [4]; 2.71 µM in test [5]; 2.68 µM in test [6]; 2.41 µM in [7]. The TGI in test [8] stood at 1.26 µM; in test [9], 0.387 µM; in test [10], 0.755 µM.
Regarding `NC(N)=N/N=C/c1c(-c2cc(Cl)sc2Cl)nc2n1CCS2`, the GI50 in [2] was 17.3 µM; in test [3] it was 10.4 µM; in test [4], 5.11 µM; in test [5], 10.1 µM; in test [6], 8.9 µM; in test [9], 10.8 µM. Also, in test [10], the GI50 is 8.04 µM. In addition, the TGI was over 50 µM in [2]; 26.8 µM in test [3]; 12.6 µM in test [4]; 18.2 µM in [5]; 16.6 µM in test [6]; 22.4 µM in test [9]. In test [10], this compound registered a TGI of 20.7 µM.
On to `Cc1ccc(C)c(NC(=O)/C(=N\NC(N)=S)C(C#N)c2ccccc2)c1` (stereo not drawn), for which the TGI in [1], in test [2], in test [3], in [4], in [5] and in [6] was over 100 µM each time. For the same compound, the TGI in test [7], in test [8] and in [10] was over 100 µM in each case.
`O=C1/C(=C\c2cccs2)Oc2ccccc21`: the TGI in test [2] was 83.3 µM; in test [3], over 100 µM; in [4], over 100 µM; in test [5], over 100 µM; in [6], over 100 µM; in test [7], over 100 µM. The TGI in test [8], in test [9] and in test [10] was over 100 µM each time.
For `O=C1OCC2=Nc3cccc4cccc(c34)N12`, the TGI in test [2], in [3], in test [4], in test [5], in test [7] and in test [8] was over 100 µM throughout. In addition, the TGI in test [9] and in test [10] was over 100 µM each time.
In the case of `[Cl][Sn]([c]1ccccc1)[c]1ccccc1`, the GI50 in test [1] is 2.19 µM; in test [2], 17.2 µM; in test [3], 2.91 µM; in test [4] it was 14.1 µM; in [5] it was 3.35 µM; in test [7], 15.2 µM. In addition, the GI50 in [8] is 6.91 µM; in [9] it was 1.55 µM; in test [10], 3.39 µM. Also, the TGI in test [1] is 4.66 µM; in test [2], 30.9 µM; in [3], 28.9 µM; in test [4], 27.8 µM; in [5], 11.2 µM; in test [7], 29.8 µM. The TGI in test [8] was found to be 22.9 µM; in test [9], 3.24 µM; in test [10], 17.5 µM.
Take `O=c1oc2c3ccc4ccccc4c3n(Cc3nc4ccccc4[nH]3)c2c2ccccc12`: the TGI in [1], in test [2], in test [3], in test [4], in [6] and in test [7] was over 100 µM each time. Further, the TGI in test [8], in test [9] and in test [10] was over 100 µM throughout.
Turning to `c1cncc(C2c3[nH]c4ccccc4c3CCN2CCN2CCCCC2)c1` (stereo not drawn), the TGI in [2], in [3], in test [4], in [5], in test [6] and in test [7] was over 100 µM each time. Moreover, the TGI in test [8] and in [10] was over 100 µM each time.
`C=C(CNCCO)[C@@H]1CC[C@]2(CO)CC[C@]3(C)[C@H](CC[C@@H]4[C@@]5(C)CCC(NCCc6ccc(O)cc6)C(C)(C)[C@@H]5CC[C@]43C)[C@@H]12` (stereo partly drawn): the GI50 in [1] is 1.59 µM; in test [2], 1.51 µM; in [3], 0.339 µM; in [4], 0.355 µM; in test [5], 1.69 µM; in test [6], 1.46 µM. Moreover, the GI50 in [7] was 1.44 µM; in test [9] it was 1.08 µM; in [10] it was 0.25 µM. Besides, the TGI in [1] amounted to 3.13 µM; in test [2] it was 2.94 µM; in test [3], 1.36 µM; in test [4], 1.43 µM; in test [5], 3.13 µM; in test [6], 2.81 µM. The figures for the TGI in test [7], in test [9] and in [10] were 3 µM, 2.39 µM and 0.802 µM, respectively.
As to `Cc1ccc(-n2c(C)nc3c2C(=O)c2ccccc2C3=O)cc1`, the TGI in [1] was 51.5 µM; in test [2] it was over 100 µM; in [3], over 100 µM; in test [4], over 100 µM; in [5], over 100 µM; in test [7], over 100 µM. For the same compound, the TGI in test [8] is 21.4 µM; in [9], over 100 µM; in [10], over 100 µM.
Turning to `Cc1ccc(S(=O)(=O)ON/N=C2/C3OC3[C@@H]3CCCC[C@H]23)cc1` (stereo partly drawn), the TGI in test [1], in [2], in test [3], in test [4], in test [7] and in test [9] was over 100 µM each time. The same compound showed a TGI in test [10] of over 100 µM.
For the compound `CN(C)CCNC(=O)c1cccc(CO)c1[N+](=O)[O-]`, the TGI in [1], in [2], in [3], in test [4], in [5] and in test [6] was over 100 µM throughout. For the same compound, the TGI in test [8] and in [10] was over 100 µM each time.
For the compound `Cc1ccc(S(=O)(=O)NCCN2c3nc4ccccc4cc3Sc3cc4ccccc4nc32)cc1`, the GI50 in test [1] was 23.2 µM; in [2], over 100 µM; in [3], over 100 µM; in test [4], over 100 µM; in [5] it was 5.59 µM; in test [6] it was 24.4 µM. Also, the values for the GI50 in test [8], in [9] and in test [10] were 7.11 µM, 22.1 µM and over 100 µM, respectively. Also, the TGI in test [1] was over 100 µM; in [2], over 100 µM; in test [3], over 100 µM; in test [4], over 100 µM; in test [5], over 100 µM; in test [6] it was over 84.9 µM. Moreover, the TGI in [8] was over 100 µM; in test [9], 66.3 µM; in [10] it was over 100 µM.
In the case of `COC(=O)/C(=N/NC(C)(C)C)C(C(=O)C=C(C)C)C(=O)C(=O)Nc1ccc(Cl)cc1C` (stereo not drawn), the TGI in [1], in test [2], in test [3], in test [4], in [5] and in [6] was over 100 µM each time. The TGI in test [7], in test [8] and in test [10] was over 100 µM each time.
As for `O=c1c(OC/C(=N/O)c2ccccc2)c(-c2ccccc2)oc2ccccc12`, the GI50 in test [2] was 19.2 µM; in test [3] it was 12.6 µM; in [4], 9.64 µM; in test [5], 7.88 µM; in [7], 38.6 µM; in [9] it was 20.8 µM. In test [10], the GI50 was 13.9 µM. Besides, the TGI was over 50 µM in [2]; over 50 µM in test [3]; 17.5 µM in test [4]; 15 µM in test [5]; over 50 µM in [7]; over 50 µM in test [9]. For the same compound, in test [10], the TGI was over 50 µM.
Regarding `CCCN(CCC)c1c([N+](=O)[O-])cc(S(N)(=O)=O)cc1[N+](=O)[O-]`, the TGI worked out at 33 µM in test [1]; 34.8 µM in [2]; 45.4 µM in [3]; 33.2 µM in test [4]; 33.5 µM in test [5]; 26.9 µM in [7]. Further, the values for the TGI in test [8] and in [10] were 33.8 µM and 57.4 µM, respectively.
In the case of `O=S(=O)(O)c1ccc2cc(N=Nc3cc(S(=O)(=O)O)c4cccnc4c3O)ccc2c1`, the TGI in test [1], in test [2], in [3], in test [5], in [6] and in [7] was over 100 µM throughout. The TGI in [8], in test [9] and in [10] was over 100 µM each time.
Take `CCOC(=O)C(=O)Nc1c(C)cccc1CC`: the TGI in test [1], in [2], in test [3], in [4], in test [5] and in test [7] was over 100 µM each time. For the same compound, the TGI in test [8], in [9] and in test [10] was over 100 µM in each case.
With `COC(=O)c1ccc(OCc2ccc3oc(=O)c(-c4ccccc4)nc3c2)cc1`, the TGI in test [1], in test [2], in [3], in test [4], in test [5] and in [7] was over 100 µM in each case. Also, the TGI in test [8] and in test [10] was over 100 µM throughout.
Consider `COC(=O)c1ccc2c(c1)c1c(C)c3cnccc3c(C)c1n2C`, for which the GI50 in [1] is 0.0615 µM; in test [2], 0.0369 µM; in test [3], 0.0468 µM; in [4] it was 0.137 µM; in test [5], 0.0866 µM; in test [6], 0.0348 µM. Further, the GI50 in test [7] was 0.0839 µM; in [9], 0.0512 µM; in test [10], 0.0372 µM. Besides, the TGI in test [1] was determined as 0.314 µM; in test [2], 0.821 µM; in [3] it was 3.13 µM; in [4], 3.85 µM; in [5], 0.253 µM; in test [6] it was 0.166 µM. Also, the values for the TGI in test [7], in [9] and in [10] were 0.531 µM, 0.286 µM and 2.04 µM, respectively.
